Molecular target: T1, BTK (Homo sapiens, UniProt Q06187)
T1 construct: The GM01501.3 cell line endogenously expresses BTK with a HiBiT fusion tag via CRISPR knock-in at its C-terminal region; endogenous in cells; host or cells: GM01501.3 (GM01501 cells engineered by CRISPR knock-in of HiBiT at the BTK locus)
Assay: BTK degradation assay using the HiBiT Method (Nano-Glo HiBiT Lytic Assay, GM01501.3 cells)
Type: cell-based
Conditions: HiBiT Degradation on GM01501.3 BTK @ 6 hours
In short: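 Degradation read-out: HiBiT luminescence after lytic reagent addition, giving DC50. Compounds dosed from 10 μM in 11 half-log steps (duplicate) onto GM01501.3 cells, whose endogenous BTK carries a C-terminal HiBiT knock-in tag; 6 h exposure, 37 °C, 5% CO2.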

T1 sequence (Q06187 whole entry, the tested form may be a part): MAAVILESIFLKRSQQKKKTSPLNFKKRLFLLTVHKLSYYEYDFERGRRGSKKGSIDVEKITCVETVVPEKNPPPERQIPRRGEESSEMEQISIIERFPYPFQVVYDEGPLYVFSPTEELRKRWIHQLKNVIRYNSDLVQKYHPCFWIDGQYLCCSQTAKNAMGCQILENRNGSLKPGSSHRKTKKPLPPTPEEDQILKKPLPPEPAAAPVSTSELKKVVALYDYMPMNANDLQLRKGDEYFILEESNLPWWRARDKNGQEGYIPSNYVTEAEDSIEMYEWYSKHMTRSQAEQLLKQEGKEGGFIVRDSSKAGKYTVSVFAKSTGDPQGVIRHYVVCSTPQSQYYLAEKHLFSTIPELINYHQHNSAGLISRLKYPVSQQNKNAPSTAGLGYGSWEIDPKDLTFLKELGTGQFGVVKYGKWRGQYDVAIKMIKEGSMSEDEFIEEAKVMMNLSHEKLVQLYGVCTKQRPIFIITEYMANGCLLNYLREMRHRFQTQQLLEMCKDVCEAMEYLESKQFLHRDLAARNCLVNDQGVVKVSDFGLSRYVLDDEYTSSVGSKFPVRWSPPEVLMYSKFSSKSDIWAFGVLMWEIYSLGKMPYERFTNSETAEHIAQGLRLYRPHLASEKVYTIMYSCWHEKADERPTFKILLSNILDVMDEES

Row | SMILES | DC50
1 | Cc1cc(-c2ncnn3cc(-c4cn(C)c(CN5CCC(c6ccc(C7CCC(=O)NC7=O)cc6)CC5)n4)cc23)ccc1CNC(=O)c1noc(C(C)(C)C)n1 (stereo not drawn) [Example 209, 5-(tert-butyl)-N-(4-(6-(2-((4-(4-(2,6-dioxopiperidin-3-yl)phenyl)piperidin-1-yl)methyl)-1-methyl-1H-imidazol-4-yl)pyrrolo[2,1-f][1,2,4]triazin-4-yl)-2-methylbenzyl)-1,2,4-oxadiazole-3-carboxamide] | < 100 nM
2 | Cn1nc(N2CCC(=O)NC2=O)c2ccc(C3CCN(Cc4ccc(-c5cc6c(-c7ccc(CNC(=O)c8noc(C(C)(C)C)n8)c(F)c7)ncnn6c5)cn4)CC3)cc21 [Example 244, 5-(tert-butyl)-N-(4-(6-(6-((4-(3-(2,4-dioxotetrahydropyrimidin-1(2H)-yl)-1-methyl-1H-indazol-6-yl)piperidin-1-yl)methyl)pyridin-3-yl)pyrrolo[2,1-f][1,2,4]triazin-4-yl)-2-fluorobenzyl)-1,2,4-oxadiazole-3-carboxamide] | < 100 nM
3 | Cc1c(NC(=O)c2ccc(C(C)(C)O)cc2)cc(F)cc1-c1ncnn2cc(-c3ccc(CN4CCC(c5ccc(NC6CCC(=O)NC6=O)cc5)CC4)cc3)cc12 (stereo not drawn) [Example 153, N-[3-[6-[4-[[4-[4-[(2,6-dioxo-3-piperidyl)amino]phenyl]-1-piperidyl]methyl]phenyl]pyrrolo[2,1-f][1,2,4]triazin-4-yl]-5-fluoro-2-methyl-phenyl]-4-(1-hydroxy-1-methyl-ethyl)benzamide] | < 100 nM
4 | CC(C)(C)c1nc(C(=O)NCc2ccc(-c3ncnn4cc(-c5ccc(CN6CCN(c7ccc(C8CCC(=O)NC8=O)cn7)CC6)cc5)cc34)cc2F)no1 (stereo not drawn) [Example 36, 5-tert-butyl-N-[[4-[6-[4-[[4-[5-(2,6-dioxo-3-piperidyl)-2-pyridyl]piperazin-1-yl]methyl]phenyl]pyrrolo[2,1-f][1,2,4]triazin-4-yl]-2-fluoro-phenyl]methyl]-1,2,4-oxadiazole-3-carboxamide] | < 100 nM
5 | Cc1cc(-c2ncnn3cc(CCCCN4CCC(c5ccc6c(N7CCC(=O)NC7=O)nn(C)c6c5)CC4)cc23)ccc1CNC(=O)c1noc(C2(C(F)(F)F)CC2)n1 [Example 282, N-(4-(6-(4-(4-(3-(2,4-dioxotetrahydropyrimidin-1(2H)-yl)-1-methyl-1H-indazol-6-yl)piperidin-1-yl)butyl)pyrrolo[2,1-f][1,2,4]triazin-4-yl)-2-methylbenzyl)-5-(1-(trifluoromethyl)cyclopropyl)-1,2,4-oxadiazole-3-carboxamide] | < 100 nM
6 | Cc1cc(-c2ncnn3cc(CCCCN4CCC(c5ccc(NC6CCC(=O)NC6=O)cc5)CC4)cc23)ccc1CNC(=O)c1noc(C(C)(C)C)n1 (stereo not drawn) [Example 130, 5-tert-butyl-N-[[4-[6-[4-[4-[4-[(2,6-dioxo-3-piperidyl)amino]phenyl]-1-piperidyl]butyl]pyrrolo[2,1-f][1,2,4]triazin-4-yl]-2-methyl-phenyl]methyl]-1,2,4-oxadiazole-3-carboxamide] | < 100 nM
7 | CC(C)(C)c1nc(C(=O)NCc2ccc(-c3ncnn4cc(-c5ccc(CN6CCc7ccc(OC8CCC(=O)NC8=O)cc7CC6)cn5)cc34)cc2F)no1 (stereo not drawn) [Example 230, 5-(tert-butyl)-N-(4-(6-(5-((7-((2,6-dioxopiperidin-3-yl)oxy)-1,2,4,5-tetrahydro-3H-benzo[d]azepin-3-yl)methyl)pyridin-2-yl)pyrrolo [2,1-f][1,2,4]triazin-4-yl)-2-fluorobenzyl)-1,2,4-oxadiazole-3-carboxamide] | < 100 nM
8 | Cc1cc(-c2ncnn3cc(-c4cn5c(CN6CCC(c7ccc(C8CCC(=O)NC8=O)cc7)CC6)cnc5s4)cc23)ccc1CNC(=O)c1noc(C(C)(C)C)n1 (stereo not drawn) [Example 210, 5-(tert-butyl)-N-(4-(6-(5-((4-(4-(2,6-dioxopiperidin-3-yl)phenyl)piperidin-1-yl)methyl)imidazo[2,1-b]thiazol-2-yl)pyrrolo[2,1-f][1,2,4]triazin-4-yl)-2-methylbenzyl)-1,2,4-oxadiazole-3-carboxamide] | 100 to 500 nM
9 | Cc1cc(-c2ncnn3cc(-c4ccc(-c5n[nH]cc5CN5CCC(c6ccc(C7CCC(=O)NC7=O)cc6)CC5)s4)cc23)ccc1CNC(=O)c1noc(C(C)(C)C)n1 (stereo not drawn) [Example 220, 5-(tert-butyl)-N-(4-(6-(5-(4-((4-(4-(2,6-dioxopiperidin-3-yl)phenyl)piperidin-1-yl)methyl)-1H-pyrazol-3-yl)thiophen-2-yl)pyrrolo [2,1-f][1,2,4]triazin-4-yl)-2-methylbenzyl)-1,2,4-oxadiazole-3-carboxamide] | < 100 nM

Continued, values first:

Row | DC50 | SMILES
10 | < 100 nM | Cc1cc(-c2ncnn3cc(CCN4CCN(c5ncc(NC6CCC(=O)NC6=O)cc5F)CC4)cc23)ccc1CNC(=O)c1noc(C(C)(C)C)n1 (stereo not drawn) [Example 263, 5-(tert-butyl)-N-(4-(6-(2-(4-(5-((2,6-dioxopiperidin-3-yl)amino)-3-fluoropyridin-2-yl)piperazin-1-yl)ethyl)pyrrolo[2,1-f][1,2,4]triazin-4-yl)-2-methylbenzyl)-1,2,4-oxadiazole-3-carboxamide]
11 | < 100 nM | Cc1cc(-c2ncnn3cc(-c4ccc(CN5CCC(c6ccc(NC7CCC(=O)NC7=O)cc6)CC5)cc4)cc23)ccc1CNC(=O)c1noc(C(C)(C)C)n1 (racemic) [Example 1, 5-tert-butyl-N-[[4-[6-[4-[[4-[4-[(2,6-dioxo-3-piperidyl)amino]phenyl]-1-piperidyl]methyl]phenyl]pyrrolo[2,1-f][1,2,4]triazin-4-yl]-2-methyl-phenyl]methyl]-1,2,4-oxadiazole-3-carboxamide]
12 | < 100 nM | Cc1cc(-c2ncnn3cc(-c4ccc(CN5CCC(c6ccc(NC7CCC(=O)NC7=O)cc6)CC5)cc4)cc23)ccc1CNC(=O)c1ccc(C(C)C)cn1 (stereo not drawn) [Example 89, N-[[4-[6-[4-[[4-[4-[(2,6-dioxo-3-piperidyl)amino]phenyl]-1-piperidyl]methyl]phenyl]pyrrolo[2,1-f][1,2,4]triazin-4-yl]-2-methyl-phenyl]methyl]-5-isopropyl-pyridine-2-carboxamide]
13 | < 100 nM | Cc1cc(-c2ncnn3cc(CCN4CCC(c5ccc(C6CCC(=O)NC6=O)cc5)CC4)cc23)ccc1CNC(=O)c1noc(C(C)(C)C)n1 (stereo not drawn) [Example 116, 5-tert-butyl-N-[[4-[6-[2-[4-[4-(2,6-dioxo-3-piperidyl)phenyl]-1-piperidyl]ethyl]pyrrolo[2,1-f][1,2,4]triazin-4-yl]-2-methyl-phenyl]methyl]-1,2,4-oxadiazole-3-carboxamide]
14 | < 100 nM | CC(C)(C)c1nc(C(=O)NCc2ccc(-c3ncnn4cc(CCCCN5CCC(c6ccc(C7(C)CCC(=O)NC7=O)cc6)CC5)cc34)cc2F)no1 (single isomer, unassigned) [Example 141, 5-tert-butyl-N-[[2-fluoro-4-[6-[4-[4-[4-(3-methyl-2,6-dioxo-3-piperidyl)phenyl]-1-piperidyl]butyl]pyrrolo[2,1-f][1,2,4]triazin-4-yl]phenyl]methyl]-1,2,4-oxadiazole-3-carboxamide]
15 | < 100 nM | Cn1nc(N2CCC(=O)NC2=O)c2ccc(C3CCN(CCCOc4cc5c(-c6ccc7c(c6)OCCCC7NC(=O)c6noc(C(C)(C)C)n6)ncnn5c4)CC3)cc21 (stereo not drawn) [Example 294, 5-(tert-butyl)-N-(8-(6-(3-(4-(3-(2,4-dioxotetrahydropyrimidin-1(2H)-yl)-1-methyl-1H-indazol-6-yl)piperidin-1-yl)propoxy)pyrrolo[2,1-f] [1,2,4]triazin-4-yl)-2,3,4,5-tetrahydrobenzo[b]oxepin-5-yl)-1,2,4-oxadiazole-3-carboxamide]

— patent US20240287076A1, “COMPOUNDS FOR TARGETING DEGRADATION OF BRUTON'S TYROSINE KINASE” (BIOGEN MA INC., priority 2021, published 2024)
